# Assay results: patent US20230365546A1, “5-SUBSTITUTED INDOLE 3-AMIDE DERIVATIVES, PREPARATION METHOD AND USE THEREOF” (ORIGIANT PHARMACEUTICAL CO., LTD, priority 2020, published 2023)
# Key:
# Assay in all cases: Kinase Profiler 10 μM panel
# FGFR4(h) = FGFR4(h) (Homo sapiens (Human), UniProt P22455)
# Experimental: (§1) In vitro kinase assays were conducted using Kinase Profiler services provided by Eurofins. The experimental method was as follows: the small molecule compound to be tested (0.001-10 μM), the protein kinase to be tested were incubated with a buffer containing substrate, 10 mM magnesium acetate, and [γ-^33P-ATP], the reaction was started by adding Mg\TPmix, after incubation for a period of time at room temperature, a 3% phosphate solution was added to the buffer to stop the reaction. Subsequently, 10 μL of the reaction mixture was quantitatively pipetted onto P30 filter paper, which was washed three times with 75 mM phosphate solution and then once with methanol. The P30 filter paper was air-dried and scintillation fluid was added for scintillation counting.
# Rsk3(h) = Rsk3(h) (Homo sapiens (Human), UniProt Q15349)
# Experimental: as §1
# CLK4(h) = CLK4(h) (Homo sapiens (Human), UniProt Q9HAZ1)
# Experimental: as §1
# PhKγ2(h) = PhKγ2(h) (Homo sapiens (Human), UniProt P15735)
# Experimental: as §1
# Aurora-C(h) = Aurora-C(h) (Homo sapiens (Human), UniProt Q9UQB9)
# Experimental: as §1
# PRAK(h) = PRAK(h) (Homo sapiens (Human), UniProt Q8IW41)
# Experimental: as §1
# ROCK-II(r) = ROCK-II(r) (Rattus norvegicus (Rat), UniProt Q62868)
# Experimental: as §1
# MLCK(h) = test system: MLCK(h)
# Experimental: as §1
# SIK(h) = SIK(h) (Homo sapiens (Human), UniProt P57059)
# Experimental: as §1
# BTK(h) = BTK(h) (Homo sapiens (Human), UniProt Q06187)
# Experimental: as §1
# BIKe(h) = BIKe(h) (Homo sapiens (Human), UniProt Q9NSY1)
# Experimental: as §1
# Met(D1246H)(h) = Met(D1246H)(h) (Homo sapiens (Human), UniProt P08581, D1228H)
# Chain of Met(D1246H)(h) (P08581 956-1390 D1228H limits assumed): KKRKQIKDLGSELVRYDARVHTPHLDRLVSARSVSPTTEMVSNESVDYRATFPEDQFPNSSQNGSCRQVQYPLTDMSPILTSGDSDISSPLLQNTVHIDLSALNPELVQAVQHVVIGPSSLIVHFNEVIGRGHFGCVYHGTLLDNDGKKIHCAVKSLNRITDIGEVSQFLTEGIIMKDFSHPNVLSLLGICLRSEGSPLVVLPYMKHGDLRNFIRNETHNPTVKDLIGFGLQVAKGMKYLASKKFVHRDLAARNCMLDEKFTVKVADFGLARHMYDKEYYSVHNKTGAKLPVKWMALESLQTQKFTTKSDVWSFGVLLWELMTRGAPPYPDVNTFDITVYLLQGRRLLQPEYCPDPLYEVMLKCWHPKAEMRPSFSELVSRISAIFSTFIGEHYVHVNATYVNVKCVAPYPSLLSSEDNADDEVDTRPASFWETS
# Experimental: as §1
# EphB2(h) = EphB2(h) (Homo sapiens (Human), UniProt P29323)
# Experimental: as §1
# TAO1(h) = TAO1(h) (Homo sapiens (Human), UniProt Q7L7X3)
# Experimental: as §1
# VRK2(h) = VRK2(h) (Homo sapiens (Human), UniProt Q86Y07)
# Experimental: as §1
# SLK(h) = SLK(h) (Homo sapiens (Human), UniProt Q9H2G2)
# Chain of SLK(h) (Q9H2G2 whole entry): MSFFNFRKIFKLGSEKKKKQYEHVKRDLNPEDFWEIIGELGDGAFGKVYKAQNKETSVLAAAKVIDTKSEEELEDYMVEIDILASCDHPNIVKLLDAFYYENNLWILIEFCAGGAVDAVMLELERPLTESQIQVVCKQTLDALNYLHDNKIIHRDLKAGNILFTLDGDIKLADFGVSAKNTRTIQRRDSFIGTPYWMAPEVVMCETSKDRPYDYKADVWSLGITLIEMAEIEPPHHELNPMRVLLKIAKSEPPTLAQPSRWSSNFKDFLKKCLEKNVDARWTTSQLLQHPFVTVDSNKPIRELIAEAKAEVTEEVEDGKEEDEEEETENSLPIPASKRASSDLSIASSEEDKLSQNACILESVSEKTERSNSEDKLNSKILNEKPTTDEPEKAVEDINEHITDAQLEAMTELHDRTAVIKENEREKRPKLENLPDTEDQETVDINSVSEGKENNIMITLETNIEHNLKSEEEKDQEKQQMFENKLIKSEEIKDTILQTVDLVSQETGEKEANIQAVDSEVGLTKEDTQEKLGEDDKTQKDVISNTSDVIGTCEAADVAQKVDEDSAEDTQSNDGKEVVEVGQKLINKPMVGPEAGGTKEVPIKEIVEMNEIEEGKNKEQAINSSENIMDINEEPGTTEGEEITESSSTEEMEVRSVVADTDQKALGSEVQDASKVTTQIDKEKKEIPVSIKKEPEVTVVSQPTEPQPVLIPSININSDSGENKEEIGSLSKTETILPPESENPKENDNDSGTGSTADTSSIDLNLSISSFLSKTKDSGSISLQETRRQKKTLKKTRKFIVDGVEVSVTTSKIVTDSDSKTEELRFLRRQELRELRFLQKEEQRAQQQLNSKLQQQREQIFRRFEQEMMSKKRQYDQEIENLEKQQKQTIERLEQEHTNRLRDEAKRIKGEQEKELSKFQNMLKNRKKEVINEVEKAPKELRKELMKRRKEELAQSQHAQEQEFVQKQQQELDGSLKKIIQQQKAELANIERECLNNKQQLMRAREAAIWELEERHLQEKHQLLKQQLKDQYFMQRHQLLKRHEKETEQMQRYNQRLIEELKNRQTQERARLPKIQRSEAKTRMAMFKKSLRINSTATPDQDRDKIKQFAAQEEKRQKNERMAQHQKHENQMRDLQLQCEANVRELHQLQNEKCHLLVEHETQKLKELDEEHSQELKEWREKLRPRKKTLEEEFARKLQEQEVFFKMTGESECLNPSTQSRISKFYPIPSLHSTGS
# Experimental: as §1
# MELK(h) = MELK(h) (Homo sapiens (Human), UniProt Q14680)
# Experimental: as §1
# CK2α2(h) = CK2α2(h) (Homo sapiens (Human), UniProt P19784)
# Chain of CK2α2(h) (P19784 whole entry): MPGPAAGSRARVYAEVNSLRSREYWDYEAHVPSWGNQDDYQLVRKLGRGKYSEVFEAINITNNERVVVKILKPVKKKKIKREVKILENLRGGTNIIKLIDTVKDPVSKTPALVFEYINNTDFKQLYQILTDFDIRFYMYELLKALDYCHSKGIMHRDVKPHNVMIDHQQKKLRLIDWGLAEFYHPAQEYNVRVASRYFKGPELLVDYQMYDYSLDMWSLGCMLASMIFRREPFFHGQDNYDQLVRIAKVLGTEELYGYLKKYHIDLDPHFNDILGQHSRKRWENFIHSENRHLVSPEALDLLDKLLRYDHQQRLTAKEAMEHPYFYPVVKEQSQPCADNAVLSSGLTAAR
# Experimental: as §1
# Met(Y1248C)(h) = Met(Y1248C)(h) (Homo sapiens (Human), UniProt P08581, Y1230C)
# Experimental: as §1
# cKit(D816V)(h) = cKit(D816V)(h) (Homo sapiens (Human), UniProt P10721, D816V)
# Chain of cKit(D816V)(h) (P10721 26-976 D816V): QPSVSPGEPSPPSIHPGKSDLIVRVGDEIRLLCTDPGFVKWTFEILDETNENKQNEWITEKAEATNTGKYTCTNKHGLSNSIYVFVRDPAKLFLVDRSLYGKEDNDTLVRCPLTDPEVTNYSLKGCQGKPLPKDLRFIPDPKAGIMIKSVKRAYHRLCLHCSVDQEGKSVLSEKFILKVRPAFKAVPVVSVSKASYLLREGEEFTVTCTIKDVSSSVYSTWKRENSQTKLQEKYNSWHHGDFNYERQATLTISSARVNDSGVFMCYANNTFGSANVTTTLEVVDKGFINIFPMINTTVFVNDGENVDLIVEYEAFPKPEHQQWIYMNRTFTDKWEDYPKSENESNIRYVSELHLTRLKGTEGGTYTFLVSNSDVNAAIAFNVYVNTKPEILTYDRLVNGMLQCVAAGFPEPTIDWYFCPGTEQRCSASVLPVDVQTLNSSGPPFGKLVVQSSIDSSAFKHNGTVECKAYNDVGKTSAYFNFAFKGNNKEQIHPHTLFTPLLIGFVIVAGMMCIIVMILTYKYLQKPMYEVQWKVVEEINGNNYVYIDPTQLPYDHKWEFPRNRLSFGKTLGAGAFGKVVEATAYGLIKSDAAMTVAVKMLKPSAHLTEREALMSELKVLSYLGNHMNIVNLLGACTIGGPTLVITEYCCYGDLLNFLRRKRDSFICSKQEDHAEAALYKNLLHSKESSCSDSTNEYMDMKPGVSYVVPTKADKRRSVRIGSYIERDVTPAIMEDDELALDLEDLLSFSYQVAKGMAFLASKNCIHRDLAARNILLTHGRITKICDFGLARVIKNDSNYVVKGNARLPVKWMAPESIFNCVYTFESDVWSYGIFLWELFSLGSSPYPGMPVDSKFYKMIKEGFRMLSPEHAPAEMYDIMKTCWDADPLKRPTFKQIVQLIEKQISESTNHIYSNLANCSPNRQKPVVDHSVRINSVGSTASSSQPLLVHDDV
# Experimental: as §1
# PDHK4(h) = PDHK4(h) (Homo sapiens (Human), UniProt Q16654)
# Chain of PDHK4(h) (Q16654 whole entry): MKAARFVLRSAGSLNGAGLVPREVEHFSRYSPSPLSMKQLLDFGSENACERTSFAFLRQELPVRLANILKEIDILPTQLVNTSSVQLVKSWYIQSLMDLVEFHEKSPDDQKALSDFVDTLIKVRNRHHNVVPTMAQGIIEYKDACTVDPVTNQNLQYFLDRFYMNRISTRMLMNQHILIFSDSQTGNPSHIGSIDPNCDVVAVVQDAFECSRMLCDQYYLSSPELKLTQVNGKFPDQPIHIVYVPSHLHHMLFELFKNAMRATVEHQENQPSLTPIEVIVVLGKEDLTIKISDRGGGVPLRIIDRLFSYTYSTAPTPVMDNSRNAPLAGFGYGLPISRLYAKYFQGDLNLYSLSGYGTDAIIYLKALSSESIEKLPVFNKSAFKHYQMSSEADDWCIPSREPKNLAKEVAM
# Experimental: as §1
# PAK4(h) = PAK4(h) (Homo sapiens (Human), UniProt O96013)
# Experimental: as §1
# cKit(V654A)(h) = cKit(V654A)(h) (Homo sapiens (Human), UniProt P10721, V654A)
# Chain of cKit(V654A)(h) (P10721 26-976 V654A): as the sequence (P10721 26-976 D816V) above, with V629A, V791D counted along it
# Experimental: as §1
# PKCι(h) = PKCι(h) (Homo sapiens (Human), UniProt P41743)
# Chain of PKCι(h) (P41743 whole entry): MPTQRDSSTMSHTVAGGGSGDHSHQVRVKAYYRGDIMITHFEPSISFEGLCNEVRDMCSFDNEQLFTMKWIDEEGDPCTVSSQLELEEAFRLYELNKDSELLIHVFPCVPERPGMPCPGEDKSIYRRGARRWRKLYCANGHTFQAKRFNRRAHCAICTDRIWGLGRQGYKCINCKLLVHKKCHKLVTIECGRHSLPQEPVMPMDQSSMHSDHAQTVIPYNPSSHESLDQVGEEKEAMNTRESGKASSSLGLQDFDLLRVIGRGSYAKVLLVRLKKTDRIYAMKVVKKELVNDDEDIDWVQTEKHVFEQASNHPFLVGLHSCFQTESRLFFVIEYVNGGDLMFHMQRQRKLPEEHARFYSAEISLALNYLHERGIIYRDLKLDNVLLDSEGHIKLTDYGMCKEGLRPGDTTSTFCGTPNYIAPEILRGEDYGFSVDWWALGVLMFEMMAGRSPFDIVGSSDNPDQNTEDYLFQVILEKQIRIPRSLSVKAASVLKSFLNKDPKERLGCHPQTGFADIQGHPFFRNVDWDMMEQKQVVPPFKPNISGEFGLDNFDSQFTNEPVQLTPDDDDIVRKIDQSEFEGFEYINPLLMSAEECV
# Experimental: as §1
# Met(h) = Met(h) (Homo sapiens (Human), UniProt P08581)
# Experimental: as §1
# CaMKIβ(h) = CaMKIβ(h) (Homo sapiens (Human), UniProt Q6P2M8)
# Chain of CaMKIβ(h) (Q6P2M8 whole entry): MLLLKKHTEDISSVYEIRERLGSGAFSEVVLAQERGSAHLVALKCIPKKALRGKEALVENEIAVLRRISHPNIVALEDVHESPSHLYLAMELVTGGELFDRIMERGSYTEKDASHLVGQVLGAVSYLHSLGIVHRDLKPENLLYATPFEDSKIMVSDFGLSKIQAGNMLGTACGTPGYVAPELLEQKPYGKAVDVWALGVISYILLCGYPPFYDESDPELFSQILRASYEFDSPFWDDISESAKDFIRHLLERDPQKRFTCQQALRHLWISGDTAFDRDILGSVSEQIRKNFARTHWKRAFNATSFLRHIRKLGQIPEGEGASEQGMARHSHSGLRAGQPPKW
# Experimental: as §1
# Rsk1(r) = Rsk1(r) (Rattus norvegicus (Rat), UniProt Q63531)
# Experimental: as §1
# CK1(y) = test system: CK1(y)
# Experimental: as §1
# PhKγ1(h) = PhKγ1(h) (Homo sapiens (Human), UniProt Q16816)
# Experimental: as §1
# SBK1(h) = SBK1(h) (Homo sapiens (Human), UniProt Q52WX2)
# Experimental: as §1
# PDGFRα(h) = PDGFRα(h) (Homo sapiens (Human), UniProt P16234)
# Experimental: as §1
# VRK1(h) = VRK1(h) (Homo sapiens (Human), UniProt Q99986)
# Experimental: as §1
# CaMKIIβ(h) = CaMKIIβ(h) (Homo sapiens (Human), UniProt Q13554)
# Experimental: as §1
# DAPK1(h) = DAPK1(h) (Homo sapiens (Human), UniProt P53355)
# Experimental: as §1
# Chain of CLK4(h) (Q9HAZ1 whole entry): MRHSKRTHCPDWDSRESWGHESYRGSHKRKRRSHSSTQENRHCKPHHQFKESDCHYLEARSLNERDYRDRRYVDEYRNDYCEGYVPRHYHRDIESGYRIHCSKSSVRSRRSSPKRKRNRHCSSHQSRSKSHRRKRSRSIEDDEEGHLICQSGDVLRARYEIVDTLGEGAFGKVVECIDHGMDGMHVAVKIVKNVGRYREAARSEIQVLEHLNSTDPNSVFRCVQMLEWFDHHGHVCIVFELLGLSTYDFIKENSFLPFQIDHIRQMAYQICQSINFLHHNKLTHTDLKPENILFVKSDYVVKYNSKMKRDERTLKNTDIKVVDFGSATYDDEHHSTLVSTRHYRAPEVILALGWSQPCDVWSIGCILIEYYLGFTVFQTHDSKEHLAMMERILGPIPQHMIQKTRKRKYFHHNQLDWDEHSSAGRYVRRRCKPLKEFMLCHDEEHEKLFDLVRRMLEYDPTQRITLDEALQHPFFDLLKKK
structure (smiles),measurement,setting,value
"C[C@H](NC(=O)c1c[nH]c2ccc(-c3ccc4nc(NC(=O)C5CC5)sc4c3)cc12)c1cccc(F)c1 [Compound 34, (S)-5-(2-(cyclopropanecarboxamido)benzo[d]thiazol-6-yl)-N-(1-(3-fluorophenyl)ethyl)-1H-indole-3-carboxamide]",Inhibition ratio,FGFR4(h),5%
same,Inhibition ratio,Rsk3(h),49%
same,Inhibition ratio,CLK4(h),79%
same,Inhibition ratio,PhKγ2(h),5%
same,Inhibition ratio,Aurora-C(h),26%
same,Inhibition ratio,PRAK(h),27%
same,Inhibition ratio,ROCK-II(r),12%
same,Inhibition ratio,MLCK(h),14%
same,Inhibition ratio,SIK(h),21%
same,Inhibition ratio,BTK(h),15%
same,Inhibition ratio,BIKe(h),8%
same,Inhibition ratio,Met(D1246H)(h),95%
same,Inhibition ratio,EphB2(h),42%
same,Inhibition ratio,TAO1(h),24%
same,Inhibition ratio,VRK2(h),21%
same,Inhibition ratio,SLK(h),50%
same,Inhibition ratio,MELK(h),36%
same,Inhibition ratio,CK2α2(h),23%
same,Inhibition ratio,Met(Y1248C)(h),99%
same,Inhibition ratio,cKit(D816V)(h),0%
same,Inhibition ratio,PDHK4(h),72%
same,Inhibition ratio,PAK4(h),10%
same,Inhibition ratio,cKit(V654A)(h),−1%
same,Inhibition ratio,PKCι(h),−4%
same,Inhibition ratio,Met(h),95%
same,Inhibition ratio,CaMKIβ(h),11%
same,Inhibition ratio,Rsk1(r),45%
same,Inhibition ratio,CK1(y),25%
same,Inhibition ratio,PhKγ1(h),16%
same,Inhibition ratio,SBK1(h),−12%
same,Inhibition ratio,PDGFRα(h),32%
same,Inhibition ratio,VRK1(h),2%
same,Inhibition ratio,CaMKIIβ(h),21%
same,Inhibition ratio,DAPK1(h),12%
"C[C@H](NC(=O)c1cn(C)c2ccc(-c3ccn4nc(NC(=O)C5CC5)nc4c3)cc12)c1cccc(F)c1 [Compound 94, (S)-5-(2-(cyclopropanecarboxamido)-[1,2,4]triazolo[1,5-a]pyridin-7-yl)-N-(1-(3-fluorophenyl)ethyl)-1-methyl-1H-indole-3-carboxamide]",Inhibition ratio/%,FGFR4(h),37%
same,Inhibition ratio/%,Rsk3(h),27%
same,Inhibition ratio/%,CLK4(h),79%
same,Inhibition ratio/%,PhKγ2(h),48%
same,Inhibition ratio/%,Aurora-C(h),15%
same,Inhibition ratio/%,PRAK(h),30%
same,Inhibition ratio/%,ROCK-II(r),52%
same,Inhibition ratio/%,MLCK(h),14%
same,Inhibition ratio/%,SIK(h),54%
same,Inhibition ratio/%,BTK(h),65%
same,Inhibition ratio/%,BIKe(h),−2%
same,Inhibition ratio/%,Met(D1246H)(h),34%
same,Inhibition ratio/%,EphB2(h),48%
same,Inhibition ratio/%,TAO1(h),50%
same,Inhibition ratio/%,VRK2(h),−18%
same,Inhibition ratio/%,SLK(h),15%
same,Inhibition ratio/%,MELK(h),1%
same,Inhibition ratio/%,CK2α2(h),25%
same,Inhibition ratio/%,Met(Y1248C)(h),11%
same,Inhibition ratio/%,cKit(D816V)(h),75%
same,Inhibition ratio/%,PDHK4(h),−18%
same,Inhibition ratio/%,PAK4(h),5%
same,Inhibition ratio/%,cKit(V654A)(h),68%
same,Inhibition ratio/%,PKCι(h),54%
same,Inhibition ratio/%,Met(h),−29%
same,Inhibition ratio/%,CaMKIβ(h),31%
same,Inhibition ratio/%,Rsk1(r),20%
same,Inhibition ratio/%,CK1(y),30%
same,Inhibition ratio/%,PhKγ1(h),−12%
same,Inhibition ratio/%,SBK1(h),−19%
same,Inhibition ratio/%,PDGFRα(h),51%
same,Inhibition ratio/%,VRK1(h),46%
same,Inhibition ratio/%,CaMKIIβ(h),78%
same,Inhibition ratio/%,DAPK1(h),40%
